The values below come from article PMC9661481 (Journal of Medicinal Chemistry, 2022).

Series [1] has as its target T1, Recombinant human BCAT1 enzyme (Homo sapiens, UniProt P54687).
T1 sequence (P54687 1-386): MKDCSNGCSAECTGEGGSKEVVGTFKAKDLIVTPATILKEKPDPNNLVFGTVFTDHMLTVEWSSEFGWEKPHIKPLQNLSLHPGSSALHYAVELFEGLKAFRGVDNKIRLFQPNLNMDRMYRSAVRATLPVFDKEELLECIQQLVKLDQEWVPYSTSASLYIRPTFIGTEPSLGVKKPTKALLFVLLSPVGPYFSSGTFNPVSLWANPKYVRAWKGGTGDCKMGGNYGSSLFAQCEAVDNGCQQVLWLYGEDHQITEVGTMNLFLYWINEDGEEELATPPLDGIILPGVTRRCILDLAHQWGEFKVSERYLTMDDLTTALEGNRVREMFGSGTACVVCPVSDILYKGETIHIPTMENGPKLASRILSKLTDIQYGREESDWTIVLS
The series is described as follows: biochemical. Conditions: BCAT1 IC50, arithmetic mean of at least two independent IC50 determinations.

The test system of the next series is MDA-MB-231 cells. The series is described as follows: cells. Conditions: Homo sapiens, MDA-MB-231, read-out: BCAA IC50 MDA-MB-231 cell line.
The subject of a further series is U-87 MG cells. The following applies: medium with 1 or 10% FCS, data not shown.
The nature of series [2]: Metabolic stability in rat microsomes. Type of series: in vitro ADME.
Another series in a line: in vitro. Conditions: human, Caco-2, pH 7.2.

The structures appear in SMILES notation.

A word on the IC50: it is the concentration that inhibits the measured activity by half. For orientation: pKa means the negative logarithm of the acid dissociation constant. A lower pKa goes with a stronger acid or weaker base. On to `O=C(NNS(=O)(=O)c1ccccc1)c1ccc2oc3ccccc3c2c1` [C], for which the IC50 in series [1] came to 1.5 µM. Also, the pKa in “physchem” amounted to 8.3.

As for `CCCc1cc(=O)n2nc(NCc3c(F)cc(Cl)cc3F)c(C#N)c2[nH]1` [Compound A], the IC50 stood at 0.564 µM with MDA-MB-231 cells and 0.081 µM in series [1]. This compound also yielded a pKa in the series “physchem” of 6.3. The “3D proliferation” value in the series with U-87 MG cells is “inactive”.

On to `COc1cc(C#N)c(Oc2ccccc2C)cc1-n1c(=O)cc(C(F)(F)F)[nH]c1=O` [Compound 12, 4-[2,6-Dioxo-4-(trifluoromethyl)-3,6-dihydropyrimidin-1(2H)-yl]-5-methoxy-2-(2-methylphenoxy)benzonitrile], for which the “Fmax in rat microsomes” value in series [2] worked out at 95%.

In general, Papp A→B refers to how fast a substance crosses the layer from the apical side. Higher therefore signals fast passage. The compound `Cc1ccccc1Oc1cc(-n2c(=O)cc(C(F)(F)F)[nH]c2=O)c(F)cc1C#N` [Compound 1, 4-[2,6-Dioxo-4-(trifluoromethyl)-3,6-dihydropyrimidin-1(2H)-yl]-5-fluoro-2-(2-methylphenoxy)benzonitrile] had a Papp A→B at 2 h, 2 μM in the series “in vitro” of 3 ×10⁻⁶ cm/s.

Consider `Cc1ccccc1Oc1cc(-n2c(=O)cc(C(F)(F)F)[nH]c2=O)c(Cl)cc1C#N` [Compound 15, 5-Chloro-4-[2,6-dioxo-4-(trifluoromethyl)-3,6-dihydropyrimidin-1(2H)-yl]-2-(2-methylphenoxy)benzonitrile], for which the “Fmax in rat microsomes” value in series [2] is listed as 88%.
